The text below walks through data of PMC6009866, “Inhibition behaviours of some phenolic acids on rat kidney aldose reductase enzyme: an in vitro study” (Journal of Enzyme Inhibition and Medicinal Chemistry, 2017).

The target in assay [1] is T1, rat kidney aldose reductase (Rattus norvegicus, UniProt P07943).
T1 construct: Purified rat kidney aldose reductase enzyme; from tissue; host or cells: rat kidney
Put plainly: In vitro inhibition of purified rat kidney aldose reductase (NADPH absorbance decrease at 340 nm). The class given is biochemical. The following applies: for Inhibition type: from Lineweaver-Burk graph, substrate DL-glyceraldehyde; for IC50: purified rat kidney AR, 10 mM DL-glyceraldehyde, 0.5 mM NADPH, pH 6.2, from Activity%-[Inhibitor] graphs; for Inhibition effect (in words): rat kidney AR, compared to the other phenolic acids of the study. The method, then: Aldose reductase activity was assayed by following the absorbance decrease of NADPH at 340 nm spectrophotometrically.
The dialyzed enzyme solution was loaded onto the DE-52 Cellulose anion exchange column previously equilibrated with 10 mM Na-phosphate buffer (pH 7.4). […] Eluted fractions were collected, and the enzyme activity was checked at 340 nm. The fractions with the enzyme activity were pooled and mixed with glycerol. Then this enzyme solution was loaded onto the Sephadex G-100 column equilibrated with 10 mM Na-phosphate buffer (pH 7.4). Fractions were analyzed for both protein amount (280 nm) and enzyme activity (340 nm). […] The enzyme activity was checked at 340 nm in collected fractions, and the tubes with enzyme activity were combined. All purification procedures were performed at 4 °C. SDS polyacrylamide gel electrophoresis was done to the control of enzyme purity.
In inhibition studies, aldose reductase activity was assayed by following the change in absorbance at 340 nm, spectrophotometrically. One millilitre of the reaction mix contained 0.2 M Na-phosphate buffer (pH = 6.2), 10 mM DL-glyceraldehyde, 0.5 mM NADPH and enzyme solution[45]. AR activity was measured in the presence of different concentrations of phenolic acids. A control sample without inhibitor was taken as 100%, and for each inhibitor, an Activity%-[Inhibitor] graphs were drawn. IC50 values were determined from Activity%-[Inhibitor] graphs. For determination of the Ki constant, three different phenolic acid concentrations were used, and DL-glyceraldehyde was also used as a substrate at five different concentrations. […] Analysis of data obtained was made by t-test and they are given as X ± SD.

Assay [2] has as its system human placental aldose reductase. Set-up: method as in PMID 2505942. The following applies: cited from earlier work.
The mark [3] stands for this setting: Lineweaver-Burk graph, three inhibitor concentrations, five DL-glyceraldehyde concentrations, X ± SD.
Setting [4] is: mixed-type inhibition, second constant, Lineweaver-Burk graph, X ± SD.

“Also recorded” adds a separate entry of the source.

The term Ki denotes a dissociation constant, usually derived from enzyme kinetics or from competition with a known ligand. Read a high Ki as a looser hold on the target. As usually defined, the IC50 is the concentration at which inhibition is half-maximal. Read a low IC50 as greater potency in that assay. With `O=C(O)c1ccc(O)c(O)c1` [Protocatechuic acid, 3,4-dihydroxybenzoic acid], in assay [1] (setting [3]), the affinity corresponds to a Ki of 46.3 ± 31.5 µM. Further, in assay [1], the Inhibition type entry is listed as “Noncompetitive” and the IC50 is 48 µM.

On to `O=C(O)c1cc(O)cc(O)c1` [α-Resorcylic acid, 3,5-dihydroxybenzoic acid], for which, in assay [1] (setting [3]), the Ki was 127 ± 22 µM. In assay [1], the Inhibition type entry is on record as “Noncompetitive” and the half-inhibitory concentration (IC50) came to 110 µM.

The compound `COc1cc(C=CC(=O)O)cc(OC)c1O` [Sinapic acid, 3,5-Dimethoxy-4-hydroxycinnamic acid] showed a Ki in assay [1] (setting [3]) of 43.4 µM. In addition, in assay [1], the Inhibition type entry was “Noncompetitive” and the IC50 was 33 µM.

Compound `O=C(O)c1cccc(O)c1` [3-Hydroxybenzoic acid, 3-hydroxybenzoic acid] registered a Ki in assay [1] (setting [3]) of 176 ± 24.5 µM. Also, in assay [1], the Inhibition type entry is “Noncompetitive” and the IC50 came out at 150 µM.

Consider `O=C(O)/C=C/c1ccc(O)cc1` [p-Coumaric acid, trans-4-Hydroxycinnamic acid], for which the Ki in assay [1] (setting [3]) worked out at 53.1 ± 2 µM. Besides, in assay [1], the Inhibition type entry is given as “Uncompetitive” and the IC50 was found to be 57 µM.

On to `O=C(O)c1ccc(O)cc1` [4-Hydroxybenzoic acid], for which the affinity in assay [1] (setting [3]) corresponds to a Ki of 52.2 ± 20.8 µM. Besides, in assay [1], the Inhibition type entry was “Noncompetitive” and inhibition was half-maximal at 50 µM (IC50).

For `O=C(OCC1OC(OC(=O)c2cc(O)c(O)c(OC(=O)c3cc(O)c(O)c(O)c3)c2)C(OC(=O)c2cc(O)c(O)c(OC(=O)c3cc(O)c(O)c(O)c3)c2)C(OC(=O)c2cc(O)c(O)c(OC(=O)c3cc(O)c(O)c(O)c3)c2)C1OC(=O)c1cc(O)c(O)c(OC(=O)c2cc(O)c(O)c(O)c2)c1)c1cc(O)c(O)c(OC(=O)c2cc(O)c(O)c(O)c2)c1` (stereo not shown) [Tannic acid], the Ki in assay [1] (setting [3]) was found to be 0.598 ± 0.148 µM. In addition, in assay [1], the Inhibition type entry is given as “Noncompetitive”, the IC50 amounted to 0.5 µM and the “Inhibition effect (in words)” value is recorded as “strong inhibition effect; also recorded: potent inhibition effect”. In assay [2], the “Inhibition effect (in words)” value was “potent inhibitor” and the Inhibition type result is “mixed type”.

For the compound `O=C(/C=C/c1ccc(O)c(O)c1)O[C@@H]1C[C@](O)(C(=O)O)C[C@@H](O)[C@H]1O` [Chlorogenic acid], in assay [1] (setting [3]), the Ki worked out at 1.56 ± 0.436 µM. Moreover, in assay [1], the Inhibition type result is given as “mixed type”, the IC50 amounted to 5.47 µM and the “Inhibition effect (in words)” value is listed as “strong inhibition effect”. In assay [1] (setting [4]), the Ki amounted to 28.05 µM and the “Ki'” value is 28.05 ± 10.210 µM.

In turn, `COc1cc(C=CC(=O)O)ccc1O` [Ferullic acid, 4-Hydroxy-3-methoxycinnamic acid] registered an inhibition constant (Ki) in assay [1] (setting [3]) of 72.5 ± 29.9 µM. In assay [1], the Inhibition type entry was “Noncompetitive” and 69 µM corresponded to half-maximal inhibition (IC50).

`O=C(O)c1cc(O)c(O)c(O)c1` [Gallic acid]: the affinity in assay [1] (setting [3]), expressed as Ki, was 219 ± 56.3 µM. In addition, in assay [1], the Inhibition type entry is given as “Noncompetitive”, the IC50 turned out to be 176 µM and the “Inhibition effect (in words)” value is “weak inhibition effect”.

`COc1cc(C(=O)O)cc(OC)c1O` [Syringic acid] came in with a Ki in assay [1] (setting [3]) of 107 ± 21.6 µM. Further, in assay [1], the Inhibition type entry is listed as “Noncompetitive” and half-maximal inhibition (IC50) required 95 µM.

Turning to `COc1cc(C(=O)O)ccc1O` [Vanillic acid, 4-hydroxy-3-methoxybenzoic acid], the Ki in assay [1] (setting [3]) was 103 ± 56.3 µM. In assay [1], the Inhibition type entry is “Noncompetitive” and the IC50 came to 86 µM.
